Assay results reported in patent US20170071944A1, “MODULATORS OF TOLL-LIKE RECEPTORS FOR THE TREATMENT OF HIV” (Gilead Sciences, Inc., priority 2015, published 2017).

Tested on: PBMC cultures from HIV-1 infected subjects on cART
Assay: Induced cytokines and chemokines in PBMC cultures from HIV-1 infected subjects on cART (multiplexed Luminex)
Format: cell-based, human
Description: To further characterize the immune modulatory effect of TLR8 agonists in cells from HIV-infected subjects, the production of secreted cytokines and chemokines was measured in PBMCs from 4 HIV-infected subjects on suppressive cART (anonymized participant IDs 180-183). PBMCs were purified, as described in Example 121, and immediately added to tissue culture plates pre-equilibrated at 37° C. with media containing DMSO (vehicle control) or with the TLR8 modulating compound Example 15 at concentrations ranging from 1.0 nM to 10.0 μM. On day 2 after treatment, cell-free culture supernatants were collected and frozen at −80 C for subsequent analysis. Frozen supernatants were thawed at room temperature, and the indicated cytokines and chemokines were quantified with a custom multiplexed xMAP Luminex® assay following the manufacturer's instructions (Thermo Fisher Scientific Inc., Grand Island, N.Y., custom-designed kit).
Data are expressed as geometric mean cytokine values (pg/ml) obtained from 4 subjects' PBMCs. Geometric mean fold-activation from three independent incubation samples for each condition. Fold (fold-activation) is calculated as a ratio of the concentration of cytokine detected in cell culture supernatants from agonist treated samples relative to DMSO treated samples

[1] = Ex 15 3000 nM, day 2, geometric mean, 4 subjects
[2] = Ex 15 10000 nM, day 2, geometric mean, 4 subjects

Q: For `CCCC[C@H](CO)Nc1nc(N)nc2cccnc12` [Example 15], which “IL-18 Fold vs DMSO” value [1] is on record?
A: The value was 18 fold.

Q: And the “IL-23 Fold vs DMSO” value [1]?
A: The value was 19 fold.

Q: And the IP-10 pg/ml [1]?
A: The IP-10 pg/ml was 711 pg/mL.

Q: And the “IP-10 Fold vs DMSO” value [1]?
A: The value was 3 fold.

Q: What about the MCP-1 pg/ml [1] of the same compound?
A: Its MCP-1 pg/ml is 1646 pg/mL.

Q: What about the “MCP-1 Fold vs DMSO” value [1] of the same compound?
A: The value was 25 fold.

Q: What about the MIP-1α [1] of the same compound?
A: The MIP-1α was 21047 pg/mL.

Q: What about the “MIP-1α Fold vs DMSO” value [1] of the same compound?
A: The value was 421 fold.

Q: What about the MIP-1β [1] of the same compound?
A: Its MIP-1β is 293183 pg/mL.

Q: What about the “MIP-1β Fold vs DMSO” value [1] of the same compound?
A: Its value is 240 fold.

Q: And the MIP-3α [1]?
A: The MIP-3α was 2141 pg/mL.

Q: What about the “MIP-3α Fold vs DMSO” value [1] of the same compound?
A: The value was 82 fold.

Q: And the MMP-1 pg/ml [1]?
A: Its MMP-1 pg/ml is 311 pg/mL.

Q: And the “MMP-1 Fold vs DMSO” value [1]?
A: The value was 3 fold.

Q: What about the TNF-α [1] of the same compound?
A: The TNF-α was 64062 pg/mL.

Q: And the “TNF-α Fold vs DMSO” value [1]?
A: Its value is 3051 fold.

Q: What about the GRO-α [2] of the same compound?
A: Its GRO-α is 433 pg/mL.

Q: What about the “GRO-α Fold vs DMSO” value [2] of the same compound?
A: Its value is 19 fold.

Q: And the “Granzyme B” value [2]?
A: The value was 644 pg/mL.

Q: And the “Granzyme B Fold vs DMSO” value [2]?
A: The value was 3 fold.

Q: And the I-TAC [2]?
A: Its I-TAC is 69 pg/mL.

Q: What about the “I-TAC Fold vs DMSO” value [2] of the same compound?
A: The value was 1 fold.

Q: And the IFN-α [2]?
A: Its IFN-α is 4 pg/mL.

Q: And the “IFN-α Fold vs DMSO” value [2]?
A: Its value is 2 fold.

Q: What about the IFN-γ [2] of the same compound?
A: Its IFN-γ is 1478 pg/mL.

Q: What about the “IFN-γ Fold vs DMSO” value [2] of the same compound?
A: Its value is 59 fold.

Q: And the IL-6 pg/ml [2]?
A: The IL-6 pg/ml was 18836 pg/mL.

Q: And the IL-8 pg/ml [2]?
A: The IL-8 pg/ml was 1118 pg/mL.

Q: And the IL-10 pg/ml [2]?
A: The IL-10 pg/ml was 5167 pg/mL.

Q: And the IL-18 pg/ml [2]?
A: Its IL-18 pg/ml is 218 pg/mL.

Q: What about the IL-23 pg/ml [2] of the same compound?
A: Its IL-23 pg/ml is 965 pg/mL.

Q: What about the IL-1RA [2] of the same compound?
A: The IL-1RA was 90289 pg/mL.

Q: What about the “IL-1RA Fold vs DMSO” value [2] of the same compound?
A: The value was 25 fold.

Q: What about the IL-1β [2] of the same compound?
A: Its IL-1β is 6611 pg/mL.

Q: And the “IL-1β Fold vs DMSO” value [2]?
A: The value was 2204 fold.

Q: And the “IL-6 Fold vs DMSO” value [2]?
A: The value was 241 fold.

Q: What about the “IL-8 Fold vs DMSO” value [2] of the same compound?
A: The value was 4 fold.

Q: What about the “IL-10 Fold vs DMSO” value [2] of the same compound?
A: Its value is 304 fold.

Q: What about the IL-12p70 pg/ml [2] of the same compound?
A: Its IL-12p70 pg/ml is 113 pg/mL.

Q: What about the “IL-12p70 Fold vs DMSO” value [2] of the same compound?
A: The value was 38 fold.

Q: What about the “IL-18 Fold vs DMSO” value [2] of the same compound?
A: Its value is 13 fold.

Q: And the “IL-23 Fold vs DMSO” value [2]?
A: The value was 16 fold.

Q: What about the IP-10 pg/ml [2] of the same compound?
A: The IP-10 pg/ml was 587 pg/mL.

Q: And the “IP-10 Fold vs DMSO” value [2]?
A: Its value is 2 fold.

Q: What about the MCP-1 pg/ml [2] of the same compound?
A: Its MCP-1 pg/ml is 1796 pg/mL.

Q: What about the “MCP-1 Fold vs DMSO” value [2] of the same compound?
A: The value was 27 fold.

Q: And the MIP-1α [2]?
A: The MIP-1α was 24365 pg/mL.

Q: What about the “MIP-1α Fold vs DMSO” value [2] of the same compound?
A: Its value is 487 fold.

Q: And the MIP-1β [2]?
A: Its MIP-1β is 239694 pg/mL.

Q: What about the “MIP-1β Fold vs DMSO” value [2] of the same compound?
A: The value was 196 fold.

Q: What about the MIP-3α [2] of the same compound?
A: Its MIP-3α is 1680 pg/mL.

Q: What about the “MIP-3α Fold vs DMSO” value [2] of the same compound?
A: Its value is 65 fold.

Q: And the MMP-1 pg/ml [2]?
A: Its MMP-1 pg/ml is 740 pg/mL.

Q: What about the “MMP-1 Fold vs DMSO” value [2] of the same compound?
A: Its value is 8 fold.

Q: What about the TNF-α [2] of the same compound?
A: Its TNF-α is 23017 pg/mL.

Q: And the “TNF-α Fold vs DMSO” value [2]?
A: The value was 1096 fold.

Q: And the “Peak fold-activation relative to DMSO, IL-12p70” value (Example 15, 1.0 nM to 10.0 μM)?
A: The value was 518 fold.

Q: What about the “Peak fold-activation relative to DMSO, IL-18” value (Example 15, 1.0 nM to 10.0 μM) of the same compound?
A: The value was 18 fold.

Q: And the “Peak fold-activation relative to DMSO, TNF-α” value (Example 15, 1.0 nM to 10.0 μM)?
A: The value was 3051 fold.

Q: And the “Induction of IFN-ω, IL-2, IL-4, IL-5, IL-7, IL-15, IL-17A, IL-21, IL-27, or IL-29 compared to DMSO control” value (Example 15, 1.0 nM to 10.0 μM, did not induce at levels >2-fold)?
A: Its value is ≤ 2 fold.
